Data taken from ChEMBL document CHEMBL1201862, “PubChem BioAssay data set” (2004).
Active and inactive are the calls of the source.

Columns and labels:
[1] = target: Dual specificity protein phosphatase 6 (Rattus norvegicus, UniProt Q64346); assay: MKP-3 phosphatase inhibitors, primary screen, biochemical, rat enzyme, in vitro (AID 425)
[2] = target: T1, Dual specificity protein phosphatase 3 (Homo sapiens, UniProt P51452); assay: VHR1 phosphatase inhibitors, biochemical (AID 1878)
[3] = target: Cytochrome P450 2C9 (Homo sapiens, UniProt P11712)
[4] = target: T1, Dual specificity protein phosphatase 3; assay: VHR1 phosphatase inhibitors, primary screen, biochemical, absorbance, uHTS (AID 1654)
[5] = target: T2, Nucleotide-binding oligomerization domain-containing protein 1 (Homo sapiens, UniProt Q9Y239); assay: SAR analysis of NF-kappaB dependent luciferase using DAP as an inducer - Set 2. [Related pubchem assays (depositor defined):AID1566, AID1575, AID1578, AID1579, AID1849, AID1852, AID2264]; type: functional
T2 sequence (Q9Y239 whole entry): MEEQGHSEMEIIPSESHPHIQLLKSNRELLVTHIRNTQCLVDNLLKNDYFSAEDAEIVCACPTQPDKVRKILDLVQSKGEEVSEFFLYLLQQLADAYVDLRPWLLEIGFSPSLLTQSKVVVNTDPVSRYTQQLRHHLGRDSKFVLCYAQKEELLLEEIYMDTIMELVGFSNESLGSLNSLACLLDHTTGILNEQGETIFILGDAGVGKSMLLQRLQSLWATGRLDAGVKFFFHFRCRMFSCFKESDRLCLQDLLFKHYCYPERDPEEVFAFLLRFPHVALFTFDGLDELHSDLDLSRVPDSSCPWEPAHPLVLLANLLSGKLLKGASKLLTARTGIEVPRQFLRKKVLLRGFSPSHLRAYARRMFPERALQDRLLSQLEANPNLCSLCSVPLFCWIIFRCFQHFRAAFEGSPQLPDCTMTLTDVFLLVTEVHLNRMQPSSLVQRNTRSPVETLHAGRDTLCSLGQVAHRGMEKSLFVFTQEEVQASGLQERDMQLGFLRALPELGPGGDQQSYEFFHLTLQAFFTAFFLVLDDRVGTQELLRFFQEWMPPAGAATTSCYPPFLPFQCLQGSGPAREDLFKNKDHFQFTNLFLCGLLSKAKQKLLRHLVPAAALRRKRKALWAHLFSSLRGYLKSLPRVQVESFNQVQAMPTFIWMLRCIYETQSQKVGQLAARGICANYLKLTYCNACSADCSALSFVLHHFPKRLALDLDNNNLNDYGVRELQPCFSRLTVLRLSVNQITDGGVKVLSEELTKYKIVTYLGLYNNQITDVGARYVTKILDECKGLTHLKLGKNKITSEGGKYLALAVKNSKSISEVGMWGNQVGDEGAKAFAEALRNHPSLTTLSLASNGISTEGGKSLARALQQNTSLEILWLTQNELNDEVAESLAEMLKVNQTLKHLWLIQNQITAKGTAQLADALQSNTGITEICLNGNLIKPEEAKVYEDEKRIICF

[6] = system: HEK293; assay: SAR analysis of compounds that are cytotoxic to HEK293 - Set 3. [Related pubchem assays (depositor defined):AID1575, AID1578, AID1848, AID1849, AID2001, AID2333, AID2334, AID2335, AID2337, AID2469]; type: functional, cell-based; conditions: Homo sapiens
[7] = system: Streptococcus sp. 'group A'; assay: growth inhibition of control SK(-) GAS strain, dose response, counter-screen for streptokinase expression inhibitor project, luminescence, kanamycin, BacTiterGlo, confirmation (AID 1900); type: functional, organism-based
[8] = target: T3, Interleukin-8 (Homo sapiens, UniProt P10145); assay: SAR analysis of Tumor necrosis factor alpha (TNF-alpha) induced IL-8 secretion in MCF-7/NOD1 cells - Set 2. [Related pubchem assays (depositor defined):AID1575, AID2250, AID2260]; type: functional, cell-based
T3 sequence (P10145 whole entry): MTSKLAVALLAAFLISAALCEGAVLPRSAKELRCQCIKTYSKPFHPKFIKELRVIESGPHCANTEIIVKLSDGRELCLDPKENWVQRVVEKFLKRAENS

[9] = target: T4, Nucleotide-binding oligomerization domain-containing protein 2 (Homo sapiens, UniProt Q9HC29); assay: NOD2 inhibitors, SAR follow-up, set 2 (AID 2475); type: functional
[10] = target: T2, Nucleotide-binding oligomerization domain-containing protein 1; assay: SAR analysis of compounds that inhibit NOD1 - Set 3. [Related pubchem assays (depositor defined):AID1566, AID1575, AID1578, AID1849, AID1852, AID2333, AID2335, AID2466]; type: functional
[11] = target: T4, Nucleotide-binding oligomerization domain-containing protein 2; assay: NOD2 signaling inhibitors, analog potency, SAR follow-up, cell-based, set 3 (AID 2799); type: functional
[12] = target: T3, Interleukin-8; assay: SAR analysis of GM-Tri-DAP induced IL-8 secretion in MCF-7/NOD1 cells - Set 2. [Related pubchem assays (depositor defined):AID1575, AID1578, AID2333]; type: functional, cell-based
[13] = target: T5, Streptokinase A (Streptococcus pyogenes serotype M1, UniProt P10520); assay: S. pyogenes streptokinase expression inhibitors, potency, dose response, plasminogen activation absorbance, OD405 (AID 1914); type: functional, Streptococcus pyogenes M1 GAS;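 further: secreted streptokinase activity via plasminogen activation per viability signal from cell pellet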
T5 sequence (P10520 whole entry): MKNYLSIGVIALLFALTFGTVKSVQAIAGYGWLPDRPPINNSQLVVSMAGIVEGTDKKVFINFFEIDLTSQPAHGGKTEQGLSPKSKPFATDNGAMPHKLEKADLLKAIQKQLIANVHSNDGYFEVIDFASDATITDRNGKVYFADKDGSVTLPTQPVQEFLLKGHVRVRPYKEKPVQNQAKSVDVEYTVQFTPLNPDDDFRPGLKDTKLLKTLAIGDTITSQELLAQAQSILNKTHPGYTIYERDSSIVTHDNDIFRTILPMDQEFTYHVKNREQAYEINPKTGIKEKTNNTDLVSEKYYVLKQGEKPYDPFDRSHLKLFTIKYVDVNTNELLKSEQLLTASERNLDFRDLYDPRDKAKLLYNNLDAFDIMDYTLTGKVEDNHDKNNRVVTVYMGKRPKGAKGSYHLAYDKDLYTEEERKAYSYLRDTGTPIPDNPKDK

[14] = target: T2, Nucleotide-binding oligomerization domain-containing protein 1; assay: SAR analysis of compounds that inhibit NOD1 - Set 2. [Related pubchem assays (depositor defined):AID1566, AID1575, AID1578, AID1849, AID1852, AID2333, AID2335, AID2798]; type: functional
[15] = system: Streptococcus; assay: Group A Streptococcus viability loss, dose response, counter-screen for streptokinase expression inhibitor project, luminescence, BacTiterGlo (AID 1915); type: functional, organism-based;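 further: potency for reduction of bacterial viability or growth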
[16] = system: HEK293; assay: SAR analysis of compounds that are cytotoxic to HEK293 - Set 2. [Related pubchem assays (depositor defined):AID1575, AID1578, AID1849, AID2001, AID2333, AID2334, AID2335, AID2337, AID2800]; type: functional, cell-based; conditions: Homo sapiens
[17] = target: Tumor necrosis factor (Homo sapiens, UniProt P01375); assay: TNFa-triggered NF-kB activation inhibitors, SAR follow-up, cell-based, set 3 (AID 2801); type: functional
[18] = target: Intestinal-type alkaline phosphatase (Mus musculus, UniProt P24822); assay: PubChem AID 488785; type: functional
[19] = target: T6, Alkaline phosphatase, tissue-nonspecific isozyme (Homo sapiens, UniProt P05186); assay: TNAP enzyme inhibition by screening hits, dose response, selectivity assay for mouse IAP inhibitor project, biochemical, human TNAP, uHTS hits (AID 488906); type: functional
T6 sequence (P05186 whole entry): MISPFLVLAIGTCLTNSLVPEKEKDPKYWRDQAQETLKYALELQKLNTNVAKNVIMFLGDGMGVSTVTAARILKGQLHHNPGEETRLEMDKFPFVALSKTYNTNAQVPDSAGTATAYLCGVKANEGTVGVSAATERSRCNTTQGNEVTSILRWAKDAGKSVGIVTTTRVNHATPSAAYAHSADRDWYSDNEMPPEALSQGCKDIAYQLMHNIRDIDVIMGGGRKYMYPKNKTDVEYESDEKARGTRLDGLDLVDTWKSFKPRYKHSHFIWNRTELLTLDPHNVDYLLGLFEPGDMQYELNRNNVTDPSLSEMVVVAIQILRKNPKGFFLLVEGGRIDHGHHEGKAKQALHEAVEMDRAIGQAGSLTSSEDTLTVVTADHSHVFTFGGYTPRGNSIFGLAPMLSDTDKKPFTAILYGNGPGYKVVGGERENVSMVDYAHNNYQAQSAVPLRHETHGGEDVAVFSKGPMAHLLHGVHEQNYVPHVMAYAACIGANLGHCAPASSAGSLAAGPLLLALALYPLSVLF

[20] = target: Intestinal-type alkaline phosphatase (Homo sapiens, UniProt P09923); assay: inhibition of human intestinal alkaline phosphatase – biochemical, dose response (AID 488876); type: functional
[21] = target: T7, Heat shock factor protein 1 (Mus musculus, UniProt P38532); assay: inhibition of MG132-induced HSE-luciferase signal, confirmation, cell-based, NIH3T3, luminescence, dose retest (AID 2382); type: functional;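 further: NIH3T3 fibroblasts with HSF1-driven luciferase reporter stressed by proteasome inhibitor MG132; luminescence from HSF1-driven luciferase expression after 8 hours of MG132 stress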
T7 sequence (P38532 whole entry): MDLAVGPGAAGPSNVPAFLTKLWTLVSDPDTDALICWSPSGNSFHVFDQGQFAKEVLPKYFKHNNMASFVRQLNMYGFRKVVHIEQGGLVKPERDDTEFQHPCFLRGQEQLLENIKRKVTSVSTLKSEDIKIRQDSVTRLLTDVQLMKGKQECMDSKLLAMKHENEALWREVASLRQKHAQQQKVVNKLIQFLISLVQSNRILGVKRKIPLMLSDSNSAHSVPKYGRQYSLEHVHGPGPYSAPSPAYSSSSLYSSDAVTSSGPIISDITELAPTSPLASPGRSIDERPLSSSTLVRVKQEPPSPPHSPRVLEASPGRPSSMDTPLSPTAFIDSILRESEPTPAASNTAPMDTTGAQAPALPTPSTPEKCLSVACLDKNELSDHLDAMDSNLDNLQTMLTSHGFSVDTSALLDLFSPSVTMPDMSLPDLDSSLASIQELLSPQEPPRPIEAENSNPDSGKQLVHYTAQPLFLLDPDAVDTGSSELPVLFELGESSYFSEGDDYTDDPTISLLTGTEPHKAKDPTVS

[22] = target: T8, Kappa-type opioid receptor (Homo sapiens, UniProt P41145); assay: SAR analysis of Antagonists of the Kappa Opioid Receptor (KOR) using an Image-Based Assay - Set 2. [Related pubchem assays (depositor defined):AID1777, AID1785, AID1786, AID1966, AID2133, AID2136, AID2284, AID2285, AID2348]; type: functional
[23] = target: T9, Mu-type opioid receptor (Homo sapiens, UniProt P35372); assay: SAR Analysis of Agonists of the MOR Receptor using an Image-Based Assay - Set 2. [Related pubchem assays (depositor defined):AID1777, AID1785, AID1786, AID1966, AID2133, AID2136, AID2284, AID2285, AID2352]; type: functional
[24] = target: T10, Delta-type opioid receptor (Homo sapiens, UniProt P41143); assay: SAR Analysis of Antagonists of the DOR Receptor using an Image-Based Assay - Set 2. [Related pubchem assays (depositor defined):AID1777, AID1785, AID1786, AID1966, AID2133, AID2136, AID2284, AID2285, AID2357]; type: functional
[25] = target: T9, Mu-type opioid receptor; assay: SAR Analysis of Antagonists of the MOR Receptor using an Image-Based Assay - Set 2. [Related pubchem assays (depositor defined):AID1777, AID1785, AID1786, AID1966, AID2133, AID2136, AID2284, AID2285, AID2420]; type: functional
[26] = target: T8, Kappa-type opioid receptor; assay: SAR analysis of Agonists of the Kappa Opioid Receptor (KOR) using an Image-Based Assay - Set 2. [Related pubchem assays (depositor defined):AID1777, AID1786, AID1966, AID2133, AID2136, AID2284, AID2285, AID2359]; type: functional
[27] = target: T10, Delta-type opioid receptor; assay: SAR Analysis of Agonists of the DOR Receptor using an Image-Based Assay - Set 2. [Related pubchem assays (depositor defined):AID1777, AID1785, AID1786, AID1966, AID2133, AID2136, AID2284, AID2285, AID2370]; type: functional
[28] = target: T8, Kappa-type opioid receptor; assay: SAR analysis of small molecule agonists of the kappa opioid receptor via a luminescent beta-arrestin assay - Set 2. [Related pubchem assays (depositor defined):AID1777, AID1785, AID1786, AID1966, AID2133, AID2136, AID2284, AID449737]; type: functional
[29] = target: Voltage-dependent T-type calcium channel subunit alpha-1H (Homo sapiens, UniProt O95180); assay: Cav3.2 T-type channel blockers, cell-based, SynthLib3 library, HEK293 Cav3.2, fluorescence (AID 493041); type: functional

T8 sequence (P41145 whole entry): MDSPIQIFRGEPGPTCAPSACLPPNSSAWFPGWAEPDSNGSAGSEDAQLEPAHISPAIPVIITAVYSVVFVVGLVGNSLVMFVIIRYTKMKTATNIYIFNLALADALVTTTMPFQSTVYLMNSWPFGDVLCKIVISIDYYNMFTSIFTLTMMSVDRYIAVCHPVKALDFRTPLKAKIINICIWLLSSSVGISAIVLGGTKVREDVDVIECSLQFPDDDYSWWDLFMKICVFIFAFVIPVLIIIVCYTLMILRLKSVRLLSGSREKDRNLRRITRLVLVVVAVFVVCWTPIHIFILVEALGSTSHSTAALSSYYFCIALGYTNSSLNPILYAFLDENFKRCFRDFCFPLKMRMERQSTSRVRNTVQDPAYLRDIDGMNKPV
T10 sequence (P41143 whole entry): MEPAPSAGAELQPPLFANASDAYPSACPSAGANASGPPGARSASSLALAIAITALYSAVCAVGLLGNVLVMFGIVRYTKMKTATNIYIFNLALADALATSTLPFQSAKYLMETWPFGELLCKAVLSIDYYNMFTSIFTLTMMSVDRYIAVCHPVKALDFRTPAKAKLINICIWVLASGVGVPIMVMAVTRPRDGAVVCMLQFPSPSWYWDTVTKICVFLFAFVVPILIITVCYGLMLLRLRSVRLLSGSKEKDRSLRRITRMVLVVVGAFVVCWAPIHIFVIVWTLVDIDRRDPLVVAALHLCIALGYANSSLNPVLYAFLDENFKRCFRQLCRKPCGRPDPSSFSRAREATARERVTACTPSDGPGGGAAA
T4 sequence (Q9HC29 whole entry, the tested form may be a part): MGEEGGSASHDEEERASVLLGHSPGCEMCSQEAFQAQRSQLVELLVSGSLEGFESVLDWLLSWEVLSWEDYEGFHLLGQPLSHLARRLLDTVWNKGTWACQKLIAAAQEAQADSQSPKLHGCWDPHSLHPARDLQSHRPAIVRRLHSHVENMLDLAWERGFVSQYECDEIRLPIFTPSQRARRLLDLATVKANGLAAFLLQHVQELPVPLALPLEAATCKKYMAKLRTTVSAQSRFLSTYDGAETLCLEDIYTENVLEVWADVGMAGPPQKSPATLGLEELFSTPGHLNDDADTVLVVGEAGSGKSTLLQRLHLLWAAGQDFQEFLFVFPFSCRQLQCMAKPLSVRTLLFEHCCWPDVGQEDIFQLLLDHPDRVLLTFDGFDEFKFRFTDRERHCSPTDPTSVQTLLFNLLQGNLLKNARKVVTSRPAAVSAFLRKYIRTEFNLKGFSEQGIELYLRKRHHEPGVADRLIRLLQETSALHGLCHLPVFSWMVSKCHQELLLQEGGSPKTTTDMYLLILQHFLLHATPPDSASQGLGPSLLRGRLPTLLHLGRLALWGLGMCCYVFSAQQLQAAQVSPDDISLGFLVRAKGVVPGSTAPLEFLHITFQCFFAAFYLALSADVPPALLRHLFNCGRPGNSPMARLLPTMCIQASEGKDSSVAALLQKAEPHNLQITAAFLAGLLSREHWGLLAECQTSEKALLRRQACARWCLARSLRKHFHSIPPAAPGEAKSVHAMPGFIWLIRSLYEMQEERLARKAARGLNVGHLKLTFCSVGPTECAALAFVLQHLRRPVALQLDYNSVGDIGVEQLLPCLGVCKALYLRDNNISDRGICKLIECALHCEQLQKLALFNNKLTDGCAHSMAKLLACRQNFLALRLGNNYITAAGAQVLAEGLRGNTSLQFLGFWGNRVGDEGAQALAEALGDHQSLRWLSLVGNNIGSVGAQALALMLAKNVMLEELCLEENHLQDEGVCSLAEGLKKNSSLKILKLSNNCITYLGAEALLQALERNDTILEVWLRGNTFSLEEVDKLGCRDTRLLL
T1 sequence (P51452 whole entry): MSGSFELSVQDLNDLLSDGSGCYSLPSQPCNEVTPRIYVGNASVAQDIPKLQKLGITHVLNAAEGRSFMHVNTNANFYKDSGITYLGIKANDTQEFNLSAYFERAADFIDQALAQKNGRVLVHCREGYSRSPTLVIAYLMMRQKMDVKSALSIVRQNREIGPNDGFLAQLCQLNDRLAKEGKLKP
T9 sequence (P35372 whole entry): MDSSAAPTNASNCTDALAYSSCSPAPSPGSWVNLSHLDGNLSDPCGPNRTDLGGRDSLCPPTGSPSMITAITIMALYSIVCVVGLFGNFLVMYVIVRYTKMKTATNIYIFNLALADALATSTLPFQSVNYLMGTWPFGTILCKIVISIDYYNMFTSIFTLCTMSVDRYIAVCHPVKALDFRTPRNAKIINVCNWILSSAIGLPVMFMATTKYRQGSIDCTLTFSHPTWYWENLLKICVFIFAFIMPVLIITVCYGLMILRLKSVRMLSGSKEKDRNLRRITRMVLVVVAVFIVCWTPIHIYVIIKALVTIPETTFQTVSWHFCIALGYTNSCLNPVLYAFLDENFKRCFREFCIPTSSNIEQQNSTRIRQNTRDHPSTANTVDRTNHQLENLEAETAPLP
Sequence of Intestinal-type alkaline phosphatase (Homo sapiens, UniProt P09923) (P09923 whole entry): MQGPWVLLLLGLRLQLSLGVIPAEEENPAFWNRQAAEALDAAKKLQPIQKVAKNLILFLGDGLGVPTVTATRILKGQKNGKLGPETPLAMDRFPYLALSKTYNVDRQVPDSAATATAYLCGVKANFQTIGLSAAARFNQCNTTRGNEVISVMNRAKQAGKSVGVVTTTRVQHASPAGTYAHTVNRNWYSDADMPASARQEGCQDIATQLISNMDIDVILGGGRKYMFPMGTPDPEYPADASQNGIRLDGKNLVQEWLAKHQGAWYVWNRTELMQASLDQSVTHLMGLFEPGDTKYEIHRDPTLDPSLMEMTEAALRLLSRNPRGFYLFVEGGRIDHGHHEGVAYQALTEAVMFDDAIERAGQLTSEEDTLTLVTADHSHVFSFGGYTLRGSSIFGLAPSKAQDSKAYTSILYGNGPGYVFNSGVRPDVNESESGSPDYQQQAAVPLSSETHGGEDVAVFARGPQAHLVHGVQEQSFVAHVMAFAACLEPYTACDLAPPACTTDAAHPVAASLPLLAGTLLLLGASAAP
Sequence of Dual specificity protein phosphatase 6 (Q64346 whole entry): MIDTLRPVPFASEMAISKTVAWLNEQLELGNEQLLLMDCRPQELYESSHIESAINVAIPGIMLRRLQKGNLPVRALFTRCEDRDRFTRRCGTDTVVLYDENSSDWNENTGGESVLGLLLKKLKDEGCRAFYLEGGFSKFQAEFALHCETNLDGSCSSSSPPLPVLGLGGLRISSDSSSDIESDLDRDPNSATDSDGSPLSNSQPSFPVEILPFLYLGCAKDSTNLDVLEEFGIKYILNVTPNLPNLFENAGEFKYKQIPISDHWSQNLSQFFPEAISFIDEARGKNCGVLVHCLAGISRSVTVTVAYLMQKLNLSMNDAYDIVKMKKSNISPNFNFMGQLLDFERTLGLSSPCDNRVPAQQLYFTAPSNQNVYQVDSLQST
Sequence of Cytochrome P450 2C9 (P11712 whole entry): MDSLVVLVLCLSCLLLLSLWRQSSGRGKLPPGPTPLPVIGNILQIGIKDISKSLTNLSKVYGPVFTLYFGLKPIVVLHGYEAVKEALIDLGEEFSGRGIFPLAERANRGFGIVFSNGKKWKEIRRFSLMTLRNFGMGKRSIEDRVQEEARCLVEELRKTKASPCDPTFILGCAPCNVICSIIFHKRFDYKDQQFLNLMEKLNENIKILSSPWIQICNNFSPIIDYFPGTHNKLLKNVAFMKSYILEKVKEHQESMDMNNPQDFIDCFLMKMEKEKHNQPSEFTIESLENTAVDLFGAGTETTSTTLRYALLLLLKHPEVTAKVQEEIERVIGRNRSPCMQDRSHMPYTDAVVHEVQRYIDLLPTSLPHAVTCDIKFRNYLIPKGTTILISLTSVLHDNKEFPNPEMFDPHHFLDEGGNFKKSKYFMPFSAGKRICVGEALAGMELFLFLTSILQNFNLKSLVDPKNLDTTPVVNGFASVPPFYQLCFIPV
Sequence of Tumor necrosis factor (P01375 whole entry): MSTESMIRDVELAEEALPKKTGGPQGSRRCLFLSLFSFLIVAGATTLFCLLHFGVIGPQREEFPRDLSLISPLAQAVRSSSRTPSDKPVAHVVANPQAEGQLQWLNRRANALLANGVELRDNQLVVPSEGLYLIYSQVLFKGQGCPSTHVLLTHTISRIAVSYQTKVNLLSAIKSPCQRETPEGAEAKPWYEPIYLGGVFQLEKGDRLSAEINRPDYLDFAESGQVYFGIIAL
Sequence of Intestinal-type alkaline phosphatase (Mus musculus, UniProt P24822) (P24822 whole entry): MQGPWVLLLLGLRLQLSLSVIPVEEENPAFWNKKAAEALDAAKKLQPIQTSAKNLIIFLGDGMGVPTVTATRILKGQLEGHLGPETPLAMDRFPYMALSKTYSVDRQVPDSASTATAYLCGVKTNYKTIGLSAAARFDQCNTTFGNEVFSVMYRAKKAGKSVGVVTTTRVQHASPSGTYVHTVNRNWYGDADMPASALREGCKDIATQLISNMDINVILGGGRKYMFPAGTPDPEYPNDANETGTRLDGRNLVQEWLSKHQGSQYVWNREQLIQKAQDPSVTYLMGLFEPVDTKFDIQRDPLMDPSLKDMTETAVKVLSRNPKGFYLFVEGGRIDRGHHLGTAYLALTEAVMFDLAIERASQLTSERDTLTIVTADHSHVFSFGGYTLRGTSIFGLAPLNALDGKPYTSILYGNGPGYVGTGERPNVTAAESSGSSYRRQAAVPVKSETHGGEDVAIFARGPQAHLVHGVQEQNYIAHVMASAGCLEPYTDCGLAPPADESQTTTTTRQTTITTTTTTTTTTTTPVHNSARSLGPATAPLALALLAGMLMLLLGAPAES

CCC(=S)/C=C1\Sc2ccccc2N1CCCS(=O)(=O)O
IC50 [1]: > 158 µM (not active)
IC50 [2]: 8.29 µM (active)
AC50 [3]: 22.4 µM (inconclusive)
IC50 [4]: 4.33 µM (active)

CCCCn1c(SCC(=O)c2ccccc2)nc2c1c(=O)[nH]c(=O)n2C
IC50 [5]: > 25 µM (inactive)
IC50 [6]: > 20 µM (inactive)
EC50 [7]: 3.37 µM (active)
IC50 [8]: > 25 µM (inactive)
IC50 [9]: > 20 µM (inactive)
IC50 [10]: > 20 µM (inactive)
IC50 [11]: > 20 µM (inactive)
IC50 [12]: > 25 µM (inactive)
EC50 [13]: > 150 µM (not active)
IC50 [14]: > 20 µM (inactive)
EC50 [15]: 18.4 µM (active)
IC50 [16]: > 20 µM (inactive)
IC50 [17]: > 20 µM (inactive)

CCn1cc(CN2CCC(C(=O)Nc3cccc(-c4cccc(Cl)c4)c3)CC2)c(C)n1
IC50 [18]: 12.8 µM (active)
IC50 [19]: > 100 µM (inactive)
IC50 [20]: > 100 µM (inactive)
EC50 [21]: > 195 µM (not active)

c1ccc(CSc2nnc(-c3ccccn3)n2Cc2cccs2)cc1
IC50 [22]: > 32 µM (inactive)
EC50 [23]: > 32 µM (inactive)
IC50 [24]: > 32 µM (inactive)
IC50 [25]: > 32 µM (inactive)
EC50 [26]: 23.5 µM (inactive)
EC50 [27]: > 32 µM (inactive)
EC50 [28]: 13.9 µM (inactive)

CC(C)(C)CCN1C[C@@H]2C(CNC(=O)c3cc(Cl)cc(Cl)c3)[C@@H]2C1 (some centres undefined)
EC50 [29]: 0.17 µM (active)
